Experimental data published in patent US5534515A, “Pyrrolopyridazines having gastrointestinal protective effects” (BYK Gulden Lomberg Chemische Fabrik GmbH, priority 1991, dated 1996).

System: acid secretion of the perfused rat stomach stimulated by pentagastrin
Test: Investigation of the secretion-inhibiting effect on the perfused rat stomach
Assay type: in vivo, rat (CD rats, female)
Settings: for Maximum inhibition of acid secretion: N = 3, vs untreated control group, pentagastrin stimulation
Text: The effect of the compounds according to the invention after intravenous administration on the acid secretion of the perfused rat stomach stimulated by pentagastrin in vivo is shown in the following Table 2.
The abdomen of anesthesized rats (CD rats, female, 200-250 g; 1.5 g/kg i.m. of urethane) was opened after tracheotomy by a median upper abdominal incision and a PVC catheter was fixed transorally in the esophagus and a further one via the pylorus in such a way that the ends of the tubes just projected into the stomach lumen. The catheter leading from the pylorus led outwards via a side opening in the right-hand abdominal wall.
After thorough irrigation (about 50-100 ml), a flow of warm physiological NaCl solution at 37° C. was continuously passed through the stomach (0.5 ml/min, pH 6.8-6.9; Brun-Unita I). The pH (pH meter 632, glass electrode EA 147; .phi.=5 mm, Metrohm) was determined in the effluent collected (25 ml measuring cylinder) at 15 min intervals in each case and the secreted HCl by titration with a freshly prepared 0.01 N NaOH solution to pH 7 (Dosimat 655 Metrohm).
The stimulation of gastric secretion was effected by continuous infusion of 1 μg/kg (=1.65 ml/h) i.v. of pentagastrin (left femoral vein) about 30 min after the end of the operation (i.e. after determination of 2 preliminary fractions). The substances to be tested were administered intravenously (left jugular vein) in a 1 ml/kg liquid volume 60 min after the start of continuous pentagastrin infusion.
The body temperature of the animals was kept at a constant 37.8°-38° C. by infrared irradiation and heating pads (automatic, stepless control via rectal temperature sensor).
The maximum decrease in acid secretion (15 min fractions) of each treated group compared to that of the untreated control group (=100%) was used as a measure of the secretion-inhibiting effect.

Cc1c(CO)c2cnnc(OCc3ccc(F)cc3)c2n1Cc1ccccc1 [Example 1a, 1-Benzyl-7-(4-fluorobenzyloxy)-3-hydroxymethyl-2-methylpyrrolo[2,3-d]pyridazine]
ED50 (Rattus norvegicus, iv, dose (interpolated) which causes a maximum inhibition of HCl secretion by 50%, read-out: approx. ED50): ~1.1 µmol/kg | Maximum inhibition of acid secretion (dose 0.3 μmol/kg i.v.): 22% | Maximum inhibition of acid secretion (dose 1.0 μmol/kg i.v.): 52% | Maximum inhibition of acid secretion (dose 3.0 μmol/kg i.v.): 70% | Maximum inhibition of acid secretion (dose 10.0 μmol/kg i.v.): 94%
